Measurements as given in US6407132B1, “Substituted imidazole derivatives and their use as histamine H3 receptor ligands” (James Black Foundation Limited, priority 1997, dated 2002).

What was measured:
[1] = target: T1, Histamine H3 receptor (Cavia porcellus, UniProt Q9JI35); test: Histamine H3 Radioligand Binding Assay - Guinea Pig Ileum ([3H]-R-α-methylhistamine); parameters: The cortex was dissected, weighed and homogenised in ice-cold 20 mM Hepes-NaOH buffer; from tissue; host or cells: guinea pig brain cortex membranes; details: guinea pig ileum longitudinal muscle myenteric plexus membranes; 3 nM [3H]-R-α-methylhistamine; typical variance 0.12 log units; read-out: pKI (binding assay) - ileum (converted)
Experimental: Histamine H3 Radioligand Binding Assay—Guinea Pig Ileum
Male Dunkin Hartley guinea pigs (200-300 g) were used. The small intestine was rapidly removed (cut ˜5 cm from caecum and 5 cm from stomach) and placed in ice-cold 20 mM Hepes-NaOH buffer (pH7.4 at 21±3° C.). The tissue was cut into ˜10 cm segments, flushed through with ice-cold 20 mM Hepes-NaOH buffer and placed in a beaker containing fresh buffer at 4° C. 10 cm segments of ileum were threaded onto a glass pipette and the longitudinal muscle myenteric plexus was peeled away from the circular muscle using damp cotton-wool. […]
Guinea pig ileum longitudinal muscle myenteric plexus membranes (400μl) were incubated for 165 min at 21±3° C. in a final volume of 500 μl with 20 mM Hepes-NaOH buffer containing [^3H]-R-α-methylhistamine (50 μl; 3 nM) and competing compound. […] The filters were washed (3×3 ml) with ice-cold 50 mM Tris-HCl (pH6.9 at 21±3° C.), transferred into scintillation vials, 5 ml liquid scintillation cocktail was added and after 4 hours the bound radioactivity was determined by counting (4 min) in a Beckman liquid scintillation counter.
Data are analysed using GraphPad prism and the general equation for a competition curve with variable Hill slope (nH). […]
KD is the equilibrium dissociation constant for the radioligand determined by saturation experiments. […]

[2] = target: T1, Histamine H3 receptor; test: ileal longitudinal muscle, myenteric plexus functional assay (shift of R-(α)-methylhistamine E/[A] curves, Schild); type: cell-based; parameters: the longitudinal muscle layer and adhering myenteric plexus was teased away; from tissue; host or cells: guinea pig ileal longitudinal muscle with myenteric plexus; details: guinea pig ileum longitudinal muscle myenteric plexus, electrically stimulated; antagonism of R-(α)-methylhistamine; typical variance ±0.15 log units; read-out: pKB (functional assay) - ileum (converted)
Experimental: The biological activity of the compounds of the examples was measured using the ileal longitudinal muscle, myenteric plexus assay described by Paton and Aboo Zar (J. Physiol. 1968, 194, 13-33). Male Dunkin-Hartley guinea pigs (250-300 g) were employed. Briefly, a 50 cm portion of ileum proximal to the caecum was removed, after discarding the terminal 20 cm. Ileal segments (3 cm) were cleaned by passing Krebs-Henseleit buffer containing 3 μM mepyramine gently through the ileum using a Pasteur pipette (size: 13.8 cm length, 0.65 cm diameter). To avoid unnecessary damage to the tissue, Krebs-Henseleit buffer was passed through the ileal segment, while it was lying horizontally on a petri dish. Therefore, the ileum was not over-distended and the buffer flowed through with ease. Each segment was then passed over a Pasteur pipette and the longitudinal muscle layer and adhering myenteric plexus was teased away using moist cotton wool, by stroking tangentially away from the mesenteric attachment. The tissues were suspended in 20 ml organ baths containing Krebs-Henseleit buffer at 37±1° C. and gassed with 95% CO2/5% O2. The tissues were ligated to two parallel stainless steel wires, situated between two platinum electrodes (0.76 cm length, 0.06 cm diameter). All measurements were recorded isometrically (Grass FTO3 transducer). Following an initial loading tension of 1 g, the tissues were stimulated with electrical pulses at a frequency of 0.1 Hz and a pulse duration of 0.5 msec, as described by Kosterlitz & Watt (Br. J. Pharmacol. 1968, 266-276). Initially, the tissues were stimulated at supramaximal (1.3 fold times maximal) voltage for a period of 30 min and then the tissues were washed and re-stimulated. A “sighter dose” of the selective histamine H3-receptor agonist, R-(α)-methylhistamine (0.3 μM) (Arrang et al. Nature, 1987, 117-123), was administered. Upon generation of response, the “sighter dose” was removed from the tissues by “washout” (6 washes over 60 min) and during this period the electrical stimulation was switched off. The tissues were then re-stimulated and allowed to stabilise prior to the addition of drug treatments, which were allocated on a randomised block basis to the organ baths. Following the incubation period, a single cumulative E/[A] curve was obtained. The experimental E/[A] curve data was expressed as the percentage inhibition of the peak height of electrically-stimulated contraction. Antagonist affinity values were calculated from the degree of rightward shift of the R-(α)-methylhistamine E/[A] curves using Schild's methods (Arunlakshana & Schild Br. J. Pharmacol. 1959, 48-58). Typical variance in this assay is ±0.15 log units.

[3] = target: T1, Histamine H3 receptor; test: Histamine H3 Radioligand Binding Assay - Guinea Pig Cortex ([3H]-R-α-methylhistamine); parameters: The cortex was dissected, weighed and homogenised in ice-cold 20 mM Hepes-NaOH buffer; from tissue; host or cells: guinea pig brain cortex membranes; details: guinea pig cortex membranes; 0.1 nM [3H]-R-α-methylhistamine; typical variance ±0.12 log units; read-out: pKI (binding assay) - cortex (converted)
Experimental: Histamine H3 Radioligand Binding Assay—Guinea Pig Cortex
Male Dunkin Hartley guinea pigs (200-300 g) were used. The whole brain was removed and immediately placed in ice-cold 20 mM Hepes-NaOH buffer (pH7.4 at 21±3° C.). The cortex was dissected, weighed and homogenised in ice-cold 20 mM Hepes-NaOH buffer (pH7.4 at 21±3° C.) (50 ml/guinea-pig cortex) using a polytron (Kinematica AG, PT-DA 3020/2TS, 3×3s). The homogenate was centrifuged at 100×g for 5 min and the supernatants pooled and stored at 4° C. The pellets were rehomogenised in fresh ice-cold buffer (80 ml) and recentrifuged (100×g for 5 min). The supernatants were pooled and pellets rehomogenised and recentrifuged (100×g for 5 min). All supernatants were pooled and centrifuged at 39,800×g for 12 min at 4° C. The final pellet was resuspended in 20 mM Hepes-NaOH buffer (pH7.4 at 21±3° C.) to a tissue concentration of 7.5 mg.ml^−1, using a teflon-in-glass homogeniser.
Incubation Conditions and Data Analysis
These were essentially identical to those used for the guinea pig ileum myenteric plexus assay described above, except that the final assay concentration of [^3H]-R-α-methylhistamine was 0.1 nM. Typical variance in this binding assay is ±0.12 log units.

T1 sequence (Q9JI35 whole entry): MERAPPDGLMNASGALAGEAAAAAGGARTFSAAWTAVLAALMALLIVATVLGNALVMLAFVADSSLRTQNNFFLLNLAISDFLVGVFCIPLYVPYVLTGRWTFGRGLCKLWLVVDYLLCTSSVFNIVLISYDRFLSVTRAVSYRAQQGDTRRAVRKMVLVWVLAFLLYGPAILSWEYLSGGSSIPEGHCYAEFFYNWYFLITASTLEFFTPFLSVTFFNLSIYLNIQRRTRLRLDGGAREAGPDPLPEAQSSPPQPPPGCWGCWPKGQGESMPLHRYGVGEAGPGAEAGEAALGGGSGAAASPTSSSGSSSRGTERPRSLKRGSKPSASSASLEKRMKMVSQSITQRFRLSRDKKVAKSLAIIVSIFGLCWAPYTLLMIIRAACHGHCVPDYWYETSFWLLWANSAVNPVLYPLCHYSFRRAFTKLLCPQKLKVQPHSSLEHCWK

Ki [1] | Kb [2] | Ki [3] | SMILES
339 nM | 229 nM | 324 nM | O=S(=O)(NCc1ccc(Cc2c[nH]cn2)cc1)c1ccc2ccccc2c1 [Example 1]
141 nM | 70.8 nM | 28.8 nM | O=S(=O)(Cc1ccc(Cl)cc1)NCc1ccc(Cc2c[nH]cn2)cc1 [Example 2, C-(4-Chlorophenyl)-N-[4-(1H-imidazol-4-ylmethyl)-benzyl]-methanesulfonamide]
 | 112 nM | 15.8 nM | O=S(=O)(NCc1ccc(Cl)cc1)NCc1ccc(Cc2c[nH]cn2)cc1 [Example 3, N-(4-Chloro-benzyl)-N′-[4-(1H-imidazol-4-ylmethyl)-benzyl]-sulfamide]
 | 407 nM | 93.3 nM | O=S(=O)(Cc1ccc(Cl)cc1)Nc1ccc(Cc2c[nH]cn2)cc1 [Example 4, C-(4-Chloro-phenyl)-N-[4-(1H-imidazol-4-ylmelhyl)-phenyl]-methanesulfonamide]
 |  | 1410 nM | O=S(=O)(Cc1ccc(Cl)cc1)Nc1ccc(-c2c[nH]cn2)cc1 [Example 5, C-(4-Chloro-phenyl)-N-[4-(1H-imidazol-4-yl)-pheriyl]-methanesulfonamide]
 |  | 372 nM | O=S(=O)(Cc1ccc(Cl)cc1)NCc1cccc(Cc2c[nH]cn2)c1 [Example 6, C-(4-Chloro-phenyl)-N-[3-(1H-imidazol-4-ylmethyl)-benzyl]-methanesulfonamide]
 | 955 nM | 288 nM | O=S(=O)(Cc1ccc(Cl)cc1)NCCc1ccc(Cc2c[nH]cn2)cc1 [Example 7, C-(4-Chloro-phenyl)-N-{2-[4-(1H-imidazol-4-ylmethyl)-phenyl]-ethyl}-methanesulfonamide]
